Earlier results on 1 molecule are cited in patent EP0276807A2, “Lipid regulating compositions” (WARNER-LAMBERT COMPANY, priority 1987, dated 1988).

The target of this data set is T1, HMG-CoA reductase (Homo sapiens, UniProt P04035).
T1 sequence (P04035 1-888): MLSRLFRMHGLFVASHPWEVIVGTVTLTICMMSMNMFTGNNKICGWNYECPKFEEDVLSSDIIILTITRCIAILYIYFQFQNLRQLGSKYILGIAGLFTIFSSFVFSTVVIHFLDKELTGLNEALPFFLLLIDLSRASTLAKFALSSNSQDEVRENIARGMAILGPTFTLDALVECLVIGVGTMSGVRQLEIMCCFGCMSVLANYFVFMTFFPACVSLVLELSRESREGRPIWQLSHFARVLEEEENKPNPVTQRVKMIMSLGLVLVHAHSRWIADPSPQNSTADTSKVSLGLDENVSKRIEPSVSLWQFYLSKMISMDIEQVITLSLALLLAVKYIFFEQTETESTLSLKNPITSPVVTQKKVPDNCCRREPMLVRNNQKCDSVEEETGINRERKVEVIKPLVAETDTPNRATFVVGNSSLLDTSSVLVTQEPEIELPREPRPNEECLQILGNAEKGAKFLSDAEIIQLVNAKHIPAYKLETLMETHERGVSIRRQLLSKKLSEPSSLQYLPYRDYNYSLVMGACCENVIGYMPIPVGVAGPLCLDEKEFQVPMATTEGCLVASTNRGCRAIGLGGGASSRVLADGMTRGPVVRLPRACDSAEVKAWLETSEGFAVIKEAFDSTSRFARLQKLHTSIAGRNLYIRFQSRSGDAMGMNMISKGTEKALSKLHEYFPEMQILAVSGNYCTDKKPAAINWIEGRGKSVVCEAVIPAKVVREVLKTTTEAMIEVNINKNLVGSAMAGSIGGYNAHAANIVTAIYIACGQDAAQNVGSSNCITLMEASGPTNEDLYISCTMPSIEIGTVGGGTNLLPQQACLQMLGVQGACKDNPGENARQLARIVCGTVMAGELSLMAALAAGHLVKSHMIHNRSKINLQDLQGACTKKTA
Particulars: read-out: IC₅₀ value for inhibition of HMG-CoA reductase.

In the case of `CCC(C)C(=O)OC1CC(C)C=C2C=CC(C)C(CCC(O)CC(O)CC(=O)O)C21` (stereo not drawn) [Mevinolinic acid, [1S-[1α(βS*,δS*),2α,6β,8β(R*)8aα]]-1,2,6,7,8,8a-hexahydro-β,δ-dihydroxy-2,6-dimethyl-8-(2-methyl-1-oxobutoxy)-1-naphthaleneheptanoic acid], the IC50 was about 5.6 nM.
